The Deep4Chem optical property database
One block for each molecule: values may come before it.

Experiment: solvent given as SMILES

Compound: CC(C)(C)c1ccc(-c2nc3ccccc3nc2-c2cc(-c3nc4ccccc4nc3-c3ccc(C(C)(C)C)cc3)cc(-n3c4ccccc4c4ccccc43)c2)cc1
emission maximum (in Cc1ccccc1): 437 nm

Compound: Nc1cccc2cc3ccccc3cc12
emission maximum (in C1CCCCC1): 487.09 nm

Compound: C1=C(c2ccccc2)C=C(c2ccccc2)/C1=C/c1cccc(Oc2ccccc2)c1
emission maximum (in C1CCOC1): 506 nm

Compound: c1ccc2c(c1)-c1ccccc1C21c2cc(-c3ccc4ccc5cccc6ccc3c4c56)ccc2-c2ccc(-c3ccc4ccc5cccc6ccc3c4c56)cc21
emission maximum (in ClC(Cl)Cl): 421 nm

Compound: CC(=O)c1ccc2ccc3cccc4ccc1c2c34
emission maximum (in C1CCOC1): 387 nm
emission maximum (in CC#N): 390 nm
emission maximum (in CCCCCC): 387 nm
emission maximum (in CCO): 436 nm
emission maximum (in CN(C)C=O): 392 nm
emission maximum (in CO): 443 nm
emission maximum (in Cc1ccccc1): 392 nm
emission maximum (in ClCCl): 396 nm

Compound: CCC1(CC)c2ccccc2-c2ccc(C#Cc3cc(C#Cc4ccc5c(c4)C(CC)(CC)c4ccccc4-5)c4ccc5c(C#Cc6ccc7c(c6)C(CC)(CC)c6ccccc6-7)cc(C#Cc6ccc7c(c6)C(CC)(CC)c6ccccc6-7)c6ccc3c4c65)cc21
emission maximum (in Cc1ccccc1): 549 nm

Compound: CC(C)[Si](C#Cc1c2ccc(C(C)(C)C)cc2c(C#Cc2c3ccc(C(C)(C)C)cc3c(C#Cc3c4ccc(C(C)(C)C)cc4c(C#C[Si](C(C)C)(C(C)C)C(C)C)c4ccc(C(C)(C)C)cc34)c3ccc(C(C)(C)C)cc23)c2ccc(C(C)(C)C)cc12)(C(C)C)C(C)C
emission maximum (in Cc1ccccc1): 589 nm

Compound: CN(C)CCNCc1c2ccccc2cc2ccccc12
emission maximum (in C1CCCCC1): 388 nm
emission maximum (in C1CCOC1): 413 nm
emission maximum (in CC#N): 389 nm
emission maximum (in CC(C)=O): 387 nm
emission maximum (in CCO): 410 nm
emission maximum (in CN(C)C=O): 414 nm
emission maximum (in CO): 388 nm
emission maximum (in ClC(Cl)Cl): 417 nm

Compound: CCN(CC)c1ccc2cc(-c3cn4ccccc4n3)c(=O)oc2c1
emission maximum (in C1CCOC1): 474 nm
emission maximum (in CC#N): 475 nm
emission maximum (in CCO): 482 nm
emission maximum (in CCOC(C)=O): 468 nm
emission maximum (in CN(C)C=O): 477 nm
emission maximum (in CO): 485 nm
emission maximum (in CS(C)=O): 482 nm
emission maximum (in Cc1ccccc1): 469 nm
emission maximum (in ClC(Cl)Cl): 471 nm
emission maximum (in ClCCl): 478 nm

Compound: O=[N+]([O-])c1ccc(C2=Nc3sc(-c4ccccc4)n[n+]3[B-](F)(F)O2)cc1
emission maximum (in Cc1ccccc1): 409 nm

Compound: CC(C)(C)c1ccc2c(c1)c1cc(C(C)(C)C)ccc1n2-c1cccc(-c2nc(-c3cccc(-n4c5ccc(C(C)(C)C)cc5c5cc(C(C)(C)C)ccc54)c3)nc(-c3cccc(P(=O)(c4ccccc4)c4ccccc4)c3)n2)c1
emission maximum (in C1CCOC1): 514.41 nm
emission maximum (in CC#N): 572.13 nm
emission maximum (in CC(C)=O): 552.3 nm
emission maximum (in CN(C)C=O): 532.99 nm
emission maximum (in Cc1ccccc1): 481.21 nm
emission maximum (in ClC(Cl)Cl): 511.48 nm
emission maximum (in ClCCl): 532.99 nm
emission maximum (in O=P(c1ccccc1)(c1ccccc1)c1ccccc1Oc1ccccc1P(=O)(c1ccccc1)c1ccccc1): 484 nm

Compound: CC(C)(C)c1ccc(-c2nc3c4ccc(-c5cccc6ccccc56)cc4c4cc(-c5cccc6ccccc56)ccc4c3n2-c2ccc(C(C)(C)C)cc2)cc1
emission maximum (in C1CCOC1): 386 nm
emission maximum (in C1COCCO1): 385 nm
emission maximum (in CC#N): 391 nm
emission maximum (in CCCCCC): 381 nm
emission maximum (in CCCCOCCCC): 383 nm
emission maximum (in CCN(CC)CC): 382 nm
emission maximum (in CCOC(C)=O): 385 nm
emission maximum (in CCOCC): 382 nm
emission maximum (in CN(C)C=O): 394 nm
emission maximum (in Cc1ccccc1): 385 nm
emission maximum (in ClC=C(Cl)Cl): 386 nm
emission maximum (in ClCCl): 388 nm

Compound: N#Cc1c(-n2c3ccccc3c3ccccc32)c(F)c(-n2c3ccccc3c3ccccc32)c(-n2c3ccccc3c3ccccc32)c1-n1c2ccccc2c2ccccc21
emission maximum (in Cc1ccccc1): 453 nm
emission maximum (in c1ccc([Si](c2ccccc2)(c2ccc(-n3c4ccccc4c4ccccc43)cc2)c2ccc(-n3c4ccccc4c4ccccc43)cc2)cc1): 470 nm

Compound: CC(C)c1cc(C(C)C)c(B2c3ccccc3Oc3cc(N4c5ccccc5C5(c6ccccc6-c6ccccc65)c5ccccc54)ccc32)c(C(C)C)c1
emission maximum (in Cc1ccccc1): 456 nm

Compound: CCOC(=O)/C(C#N)=C/c1cc2c3ccccc3n(C)c2cc1OC
emission maximum (in C1CCOC1): 460 nm
emission maximum (in CC#N): 486 nm
emission maximum (in CCOC(C)=O): 458 nm
emission maximum (in CN(C)C=O): 486 nm
emission maximum (in CO): 486 nm
emission maximum (in CS(C)=O): 488 nm
emission maximum (in Cc1ccccc1): 446 nm
emission maximum (in ClC(Cl)Cl): 468 nm
emission maximum (in ClCCl): 472 nm

Compound: COc1ccc(C2=C3C(C)=CC(C)=[N+]3[B-](F)(F)n3c(/C=C/c4ccc(N(C)C)cc4)cc(C)c32)cc1
emission maximum (in C1CCCCC1): 612 nm
emission maximum (in C1CCOC1): 664 nm
emission maximum (in C1COCCO1): 648 nm
emission maximum (in CC1CCCCC1): 612 nm
emission maximum (in CC#N): 717 nm
emission maximum (in CC(C)=O): 695 nm
emission maximum (in CC(C)OC(C)C): 629 nm
emission maximum (in CCC#N): 710 nm
emission maximum (in CCCC#N): 695 nm
emission maximum (in CCCCO): 678 nm
emission maximum (in CCCCOCCCC): 627 nm
emission maximum (in CCOC(C)=O): 665 nm
emission maximum (in CCOCC): 641 nm
emission maximum (in CN(C)C=O): 718 nm
emission maximum (in CO): 696 nm
emission maximum (in CS(C)=O): 737 nm
emission maximum (in Cc1ccccc1): 640 nm
emission maximum (in ClC(Cl)Cl): 656 nm

Compound: CCC1(CC)c2ccccc2-c2c1c1c(c3c2C(CC)(CC)c2cc(B(c4c(C)cc(C)cc4C)c4c(C)cc(C)cc4C)ccc2-3)C(CC)(CC)c2cc(B(c3c(C)cc(C)cc3C)c3c(C)cc(C)cc3C)ccc2-1
emission maximum (in C1CCOC1): 387 nm
emission maximum (in CC#N): 398 nm
emission maximum (in CC(C)=O): 394 nm
emission maximum (in CCCCCC): 378 nm
emission maximum (in ClC(Cl)Cl): 387 nm

Compound: CC1(C)c2cccc(-c3nc(-c4ccccc4)nc(-c4ccccc4)n3)c2Oc2c(-n3c4ccccc4c4ccccc43)cccc21
emission maximum (in C1CCCCC1): 395 nm
emission maximum (in CC(C)=O): 469 nm
emission maximum (in Cc1ccccc1): 419 nm
emission maximum (in ClC(Cl)Cl): 454 nm

Compound: CCOC(=O)c1c2c3c(cccc3c3cc4ccccc4cc13)N(C)C2=O
emission maximum (in CC#N): 413 nm

Other lines, results leading:

emission maximum (in ClCCl): 573 nm
emission maximum (in OCC(F)(F)F): 562 nm
Compound: C=CCOc1nnc(OCCC(F)(F)C(F)(F)C(F)(F)C(F)(F)C(F)(F)C(F)(F)F)nn1

emission maximum (in ClC(Cl)Cl): 440 nm
Compound: COc1ccc2c(c1)c(C#N)c(C#N)c1cc(OC)ccc12

emission maximum (in ClC(Cl)Cl): 631 nm
Compound: CCCN1c2ccccc2Sc2cc(/C=C\c3cc(=O)oc4cc(O)ccc34)ccc21

emission maximum (in C1CCCCC1): 400 nm
emission maximum (in C1CCOC1): 410 nm
emission maximum (in C1COCCO1): 408 nm
emission maximum (in CC#N): 415 nm
emission maximum (in CC(C)(C)O): 412 nm
emission maximum (in CC(C)O): 416 nm
emission maximum (in CCCCCC): 402 nm
emission maximum (in CCCCO): 417 nm
emission maximum (in CCO): 417 nm
emission maximum (in CCOC(C)=O): 409 nm
emission maximum (in CN(C)C=O): 414 nm
emission maximum (in CO): 422 nm
emission maximum (in CS(C)=O): 417 nm
emission maximum (in ClC(Cl)Cl): 415 nm
emission maximum (in ClCCl): 415 nm
emission maximum (in O): 441 nm
emission maximum (in OCCO): 425 nm
Compound: Cc1ccc(/C=N/c2cc(C(C)C)c(O)cc2C)cc1

emission maximum (in C1CCOC1): 417 nm
emission maximum (in C1COCCO1): 417 nm
emission maximum (in CC#N): 417 nm
emission maximum (in CC(C)O): 423 nm
emission maximum (in CCO): 428 nm
emission maximum (in CCOC(C)=O): 415 nm
emission maximum (in CN(C)C=O): 422 nm
emission maximum (in CO): 432 nm
emission maximum (in CS(C)=O): 424 nm
emission maximum (in O): 449 nm
Compound: Cc1ccc(C2CC(c3ccc(O)cc3)=NN2c2ccc(S(N)(=O)=O)cc2)cc1 (centres undefined)

emission maximum (in ClCCl): 510 nm
Compound: COC(=O)C1=C(C(=O)OC)C2(c3ccccc3-c3ccc([N+](=O)[O-])cc32)C2(/C=C/c3ccccc3)c3cc(OC)c(OC)cc3CCN12 (centres undefined)

emission maximum (in C1CCCCC1): 398 nm
Compound: COc1ccc(C2=C(c3ccc(OC)cc3)C(C)(C)c3cc(OC)ccc32)cc1

emission maximum (in CC1CCCCC1): 468 nm
emission maximum (in CC#N): 476 nm
Compound: C(=C\c1c2ccccc2cc2ccccc12)/c1ccccc1

emission maximum (in ClCCl): 652 nm
Compound: Cc1ccc(-c2c3nc(c(-c4ccc(C)cc4)c4ccc([nH]4)c(-c4ccc(OC(=O)C(C)c5ccc(CC(C)C)cc5)cc4)c4nc(c(-c5ccc(C)cc5)c5ccc2[nH]5)C=C4)C=C3)cc1 (centres undefined)

emission maximum (in CC#N): 419.32 nm
emission maximum (in CO): 446.19 nm
Compound: Cn1cc(/C=C/C(=O)c2ccccc2)c2ccccc21

emission maximum (in C1CCOC1): 487 nm
emission maximum (in CC#N): 502 nm
emission maximum (in ClC(Cl)Cl): 494 nm
emission maximum (in ClCCl): 496 nm
Compound: COc1cc(/C=C/c2nc3ccccc3o2)c(OC)cc1/C=C/c1nc(C)nc(/C=C/c2cc(OC)c(/C=C/c3nc4ccccc4o3)cc2OC)n1

emission maximum (in C1COCCO1): 429 nm
emission maximum (in CC#N): 443 nm
emission maximum (in CO): 438 nm
Compound: CN(C)c1ccc(/C=C/C=C/C2=NC3C(=O)NC(N)=NC3N2[C@H]2C[C@H](O)[C@@H](CO)O2)cc1 (some centres undefined)

emission maximum (in ClCCl): 580 nm
Compound: COc1cccc(OC)c1-c1c2ccc(=[N+]3CCN(C(=O)OC(C)(C)C)CC3)cc-2oc2cc(N3CCN(C(=O)OC(C)(C)C)CC3)ccc12

emission maximum (in CO): 811 nm
Compound: CC1(C)C(/C=C/C2=C(c3ccc(C(=O)O)cc3)C(=C/C=C3/N(CCCS(=O)(=O)[O-])c4ccc5ccccc5c4C3(C)C)/CCC2)=[N+](CCCS(=O)(=O)[O-])c2ccc3ccccc3c21

emission maximum (in C1COCCO1): 364 nm
Compound: c1ccc(-c2ccc(-c3cc(-c4ccc(-c5ccccc5)cc4)cc(-c4ccc(-c5ccccc5)cc4)c3)cc2)cc1

emission maximum (in CC#N): 438 nm
Compound: O=C1O/C(=C\c2cccs2)c2ccccc21

emission maximum (in CC#N): 590 nm
Compound: c1cc2c3c(cccc3c1)C(N1CCOCCOCCN(C3=Nc4cccc5cccc3c45)CCOCC1)=N2

emission maximum (in CC#N): 553 nm
Compound: CC(=O)c1c2c(c(C(C)=O)c3c1OC(CC(=O)O)O3)OCO2

emission maximum (in CS(C)=O): 625 nm
emission maximum (in ClCCl): 572 nm
Compound: CCN(CC)c1ccc2c(c1)oc(=O)c1c(=O)oc3cc(C#Cc4ccc(C#N)cc4)ccc3c12

emission maximum (in CCO): 432 nm
Compound: CN(C)c1cc2c(cc1F)c(=O)c1cc(F)c(N)cc1n2C

emission maximum (in C1CCOC1): 760 nm
Compound: COc1ccccc1C1=[N+]2C(=Cc3c4cc5ccccc5cc4c(-c4ccccc4OC)n3[B-]2(F)F)c2cc3ccccc3cc21

emission maximum (in CN(C)C=O): 535 nm
Compound: CCCCCCCCCCCCCCCCCCN1C(=O)c2ccc3c4ccc5c6c(ccc(c7ccc(c2c37)C1=O)c64)C(=O)N(CCCCCCCCCCCCCCCCCC)C5=O
